Source: patent US8158661B2, “GSK-3 inhibitors” (Noscira, S.A., priority 2004, dated 2012)

Key:
[1] = biological target: T1, Bovine serum albumin (Fraction V) (Bos taurus, UniProt P02769); assay: Binding to BSA (incubation, HPLC-UV/MS); type: in vitro ADME; settings: compound and BSA 1 mM each, 30 minutes at room temperature
T1 construct: Bovine serum albumin (Fraction V) (Sigma); purchased Sigma
Protocol: The compounds (working solution at 1 mM) were incubated during 30 minutes at room temperature with Glutathione (Sigma) and Bovine serum albumin (Fraction V) (Sigma) at equimolecular concentrations (1 mM). After this time the solution was filtrated and analysed by HPLC-UV/MS.
HPLC was performed with a symmetry C18 (2.1×150 mm, 3.5 μm) column using a Waters Alliance 2695 with a 2996 photodiode array and ZQ2000 mass spectrometer used for the analytical separation and for UV and mass determination. The gradient used for the elution was: […]
Flux: 0.25 mL/min; temp: 30° C.; Detection: 250 nm; Injection Volume: 10 μL

[2] = biological target: Recombinant human glycogen synthase kinase 3β (Homo sapiens, UniProt P49841); assay: GSK-3β inhibition; type: biochemical; settings: recombinant human GSK-3β, GS-2 62.5 μM, ATP 12.5 μM, 30 min at 30° C.
Protocol: The GSK-3β activity was determined by incubation of a mixture of recombinant human GSK-3 enzyme, a phosphate source and GSK-3 substrate in the presence and in the absence of the corresponding test compound, and by measuring the GSK-3 activity of this mixture.
The final assay volume was 20 μl. After incubation for 30 minutes at 30° C., 15 μl aliquots were spotted onto P81 phosphocellulose papers. Filters were washed four times for at least 10 minutes each and counted with 1.5 ml of scintillation cocktail in a scintillation counter.

[3] = Brain permeation and pharmacokinetics after oral and intravenous administration; type: in vivo, C57/BL6 mice; settings: mice
Protocol: C57/BL6 mice (15-30 g) from Charles River laboratories Spain were used in this study. […] Water was available ad libitum. Animals were fasted for 4 hours before treatment, but with water ad libitum. They were fed 2 hours after administration.
The route of administration was a single oral administration at […] (10 mL/kg) and single intravenous administration at 2 mg/kg (10 mL/kg). An additional experiment was performed at 200 mg/kg by the oral route only to determine proportionality of absorption.
Blood was heparinized, and after centrifugation (3000 rpm, 10 mins, 5° C.), two plasma aliquots stored at −20° C. and −30° C. until analysis (HPLC/MS-MS).

T1 sequence (P02769 25-607): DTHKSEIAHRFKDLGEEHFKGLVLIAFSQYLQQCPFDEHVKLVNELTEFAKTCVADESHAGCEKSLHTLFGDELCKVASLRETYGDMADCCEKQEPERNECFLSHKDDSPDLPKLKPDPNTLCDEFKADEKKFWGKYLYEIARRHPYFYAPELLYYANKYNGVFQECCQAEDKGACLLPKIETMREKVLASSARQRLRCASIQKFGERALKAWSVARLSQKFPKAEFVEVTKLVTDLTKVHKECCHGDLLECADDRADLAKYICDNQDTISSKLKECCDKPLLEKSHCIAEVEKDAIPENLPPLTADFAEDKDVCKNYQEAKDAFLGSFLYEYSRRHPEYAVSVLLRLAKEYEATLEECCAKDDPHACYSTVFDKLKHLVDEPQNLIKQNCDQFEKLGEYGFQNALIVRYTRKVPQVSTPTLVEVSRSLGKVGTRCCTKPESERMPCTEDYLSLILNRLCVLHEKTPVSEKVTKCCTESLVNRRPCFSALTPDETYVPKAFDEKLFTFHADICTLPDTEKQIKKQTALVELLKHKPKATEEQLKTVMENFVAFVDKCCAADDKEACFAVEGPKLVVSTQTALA
Chain of Recombinant human glycogen synthase kinase 3β (P49841 whole entry): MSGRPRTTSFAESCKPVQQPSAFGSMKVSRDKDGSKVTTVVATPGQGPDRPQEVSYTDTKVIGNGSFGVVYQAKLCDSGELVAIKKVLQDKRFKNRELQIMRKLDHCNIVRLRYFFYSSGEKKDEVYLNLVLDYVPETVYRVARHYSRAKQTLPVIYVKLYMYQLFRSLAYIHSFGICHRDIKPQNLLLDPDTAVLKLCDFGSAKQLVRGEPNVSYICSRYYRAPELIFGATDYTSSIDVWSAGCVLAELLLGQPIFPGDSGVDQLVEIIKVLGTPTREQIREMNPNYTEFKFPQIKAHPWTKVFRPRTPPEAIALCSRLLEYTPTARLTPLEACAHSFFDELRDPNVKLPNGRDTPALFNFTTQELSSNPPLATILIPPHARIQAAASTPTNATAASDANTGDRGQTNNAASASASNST

With `O=c1sn(Cc2ccccc2)c(=O)n1Cc1ccccc1` [2,4-dibenzyl-1,2,4-thiadiazolidine-3,5-dione, reference compound] the “% unbinding compound, albumin” value [1] was 57.0%.
With `O=c1sn(CCc2ccccc2)c(=O)n1Cc1ccccc1` [Compound 1, 2-Phenethyl-4-benzyl-(1,2,4)thiadiazolidine-3,5-dione] the IC50 [2] was 3 µM and the “% unbinding compound, albumin” value [1] was 80.2%.
`O=c1sn(-c2cccc3ccccc23)c(=O)n1Cc1ccccc1` [Compound 2, 4-Benzyl-2-naphthalen-1-yl-[1,2,4]thiadiazolidine-3,5-dione] gave a bioavailability ([3]; both sexes, C57/BL6, mouse, plasma, oral 20 mg/kg vs intravenous 2 mg/kg) of 31.9%, a half-life ([3]; both sexes, C57/BL6, mouse, plasma, oral administration of 20 mg/kg) of 6 h and a Cmax ([3]; both sexes, C57/BL6, mouse, single oral dose 20 mg/kg, plasma) of 905 ng/mL. The Cmax ([3]; both sexes, C57/BL6, mouse, single oral dose 200 mg/kg, plasma) was 9060 ng/mL, the “Absorption from the GI tract” value ([3]; after oral administration) was “quickly absorbed” and the “Levels in the brain” value ([3]; both after oral and intravenous administration) was “detected in the brain”. For the same compound, the “% unbinding compound, albumin” value [1] was 98.0%.
In the case of `O=c1sn(C23CC4CC(CC(C4)C2)C3)c(=O)n1Cc1ccccc1` [Compound 3, 2-(1-adamantyl)-4-benzyl-[1,2,4]thiadiazolidine-3,5-dione], the IC50 [2] is reported as over 50 µM, the melting point is reported as 128.8 °C and the “% unbinding compound, albumin” value [1] is reported as 54.0%.
In the case of `Cc1ccc(Cn2sc(=O)n(Cc3ccccc3)c2=O)cc1` [Compound 4, 4-Benzyl-2-(4-methyl-benzyl)-[1,2,4]thiadiazolidine-3,5-dione], the IC50 [2] is reported as 1.8 µM and the “% unbinding compound, albumin” value [1] is reported as 67.2%.
For `O=c1sn(-c2ccc3c(c2)OCO3)c(=O)n1Cc1ccccc1` [Compound 5, 4-Benzyl 2-((3,4-methylenedioxy)phenyl)-[1,2,4]thiadiazolidine-3,5-dione], the IC50 [2] was 4.2 µM and the “% unbinding compound, albumin” value [1] was 65.5%.
With `O=c1sn(C(c2ccccc2)c2ccccc2)c(=O)n1Cc1ccccc1` [Compound 6, 4-Benzyl-2-diphenylmethyl-1,2,4-thiadiazolidine-3,5-dione] the IC50 [2] was 2 µM, the melting point was 111.5 °C and the “% unbinding compound, albumin” value [1] was 84.0%.
For `COc1ccc(Cn2sc(=O)n(Cc3ccccc3)c2=O)cc1` [Compound 7, 4-Benzyl-2-(4-methoxybenzyl)-[1,2,4]thiadiazolidine-3,5-dione], the IC50 [2] was under 50 µM and the “% unbinding compound, albumin” value [1] was 68.3%.
In the case of `Cc1cccc(C(C)(C)C)c1-n1sc(=O)n(Cc2ccccc2)c1=O` [Compound 8, 4-Benzyl-2-(2-tert-butyl-6-methyl-phenyl)-(1,2,4)thiadiazolidine-3,5-dione], the IC50 [2] is reported as 3 µM, the melting point is reported as 89.8 °C and the “% unbinding compound, albumin” value [1] is reported as 62.3%.
With `O=c1sn(-c2ccccc2Cc2ccccc2)c(=O)n1Cc1ccccc1` [Compound 9, 4-Benzyl-2-(2-benzyl-phenyl)-[1,2,4]thiadiazolidine-3,5-dione] the IC50 [2] was 8 µM, the melting point was 154.9 °C and the “% unbinding compound, albumin” value [1] was 91.4%.
For `O=c1sn(-c2ccc(Oc3ccccc3)cc2)c(=O)n1Cc1ccccc1` [Compound 10, 4-Benzyl-2-(4-phenoxyphenyl)-[1,2,4]thiadiazolidine-3,5-dione], the IC50 [2] was 3 µM, the melting point was 88.8 °C and the “% unbinding compound, albumin” value [1] was 98.9%.
